Assay: Reactivity of valsartan under EMR curing conditions
Assay type: physicochemical
Conditions: mixed with dextramate, PEGDA, Irgacure; cured for 10 minutes
Method: Dextramate (24.2 mL of a 23.1 w/w % solution), PEGDA (16.3 mL of a 8.6 w/w % solution), Irgacure (14 mL of a 0.5 w/w % solution), and valsartan (2.82 mL or 1.41 mL of a 24.8 w/w % solution or 2.82 mL of a 1:10 dilution of a 24.8 w/w % solution) are mixed together. The mixture is cured for 10 minutes. After curing, 100 mL of dH2O is added to the cured product to create a swelled gel.

reactivity under the curing conditions: does not exhibit reactivity
Structure (SMILES): CCCCC(=O)N(Cc1ccc(-c2ccccc2-c2nnn[nH]2)cc1)[C@H](C(=O)O)C(C)C [valsartan]

From patent US20220175667A1, “Extracellular Matrices, Uses Thereof, and Methods of Making Extracellular Matrices” (Johns Hopkins University, priority 2019, published 2022)
